From US5643784A, “Indan derivatives” (H, Lundbeck A/S, priority 1990, dated 1997)

Experiments:
[1] = target: T1, 5-HT2 receptors (Rattus norvegicus, UniProt P14842); experiment: Inhibition of 3H-ketanserin binding to 5-HT2 receptors in rat cortex in vitro; details: for IC50: 3H-Ketanserin 0.5 nM, rat cortex, 37° C., 30 min, read-out: Receptor Binding, IC50 5-HT2 3H-Ket
T1 construct: cortical tissue is dissected and weighed; from tissue; host or cells: cortex of male Wistar rats, crude membranes
T1 sequence (P14842 whole entry): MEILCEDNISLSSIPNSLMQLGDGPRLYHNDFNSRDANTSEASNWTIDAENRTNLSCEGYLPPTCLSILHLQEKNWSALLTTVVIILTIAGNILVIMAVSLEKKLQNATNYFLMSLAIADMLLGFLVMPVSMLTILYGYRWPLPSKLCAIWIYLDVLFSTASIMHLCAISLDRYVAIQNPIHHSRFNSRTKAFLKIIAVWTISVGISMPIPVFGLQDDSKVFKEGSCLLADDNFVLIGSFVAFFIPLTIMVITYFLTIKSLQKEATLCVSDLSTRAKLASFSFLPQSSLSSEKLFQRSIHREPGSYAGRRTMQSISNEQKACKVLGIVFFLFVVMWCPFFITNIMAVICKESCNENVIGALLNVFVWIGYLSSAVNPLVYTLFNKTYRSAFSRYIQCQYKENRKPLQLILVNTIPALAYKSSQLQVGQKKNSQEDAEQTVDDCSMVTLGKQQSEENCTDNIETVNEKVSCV

[2] = target: T2, dopamine D-2 receptors (Rattus norvegicus, UniProt P61169); experiment: Inhibition of 3H-spiperone binding to dopamine D-2 receptors in rat corpus striatum in vitro; details: 3H-spiperone 0.5 nM, rat corpus striatum, 37° C., 10 min; read-out: Receptor Binding; IC50 DA D-2 3H-Spi
T2 construct: striatal tissue is dissected and weighed; from tissue; host or cells: corpus striatum of male Wistar rats, crude membranes
T2 sequence (P61169 whole entry): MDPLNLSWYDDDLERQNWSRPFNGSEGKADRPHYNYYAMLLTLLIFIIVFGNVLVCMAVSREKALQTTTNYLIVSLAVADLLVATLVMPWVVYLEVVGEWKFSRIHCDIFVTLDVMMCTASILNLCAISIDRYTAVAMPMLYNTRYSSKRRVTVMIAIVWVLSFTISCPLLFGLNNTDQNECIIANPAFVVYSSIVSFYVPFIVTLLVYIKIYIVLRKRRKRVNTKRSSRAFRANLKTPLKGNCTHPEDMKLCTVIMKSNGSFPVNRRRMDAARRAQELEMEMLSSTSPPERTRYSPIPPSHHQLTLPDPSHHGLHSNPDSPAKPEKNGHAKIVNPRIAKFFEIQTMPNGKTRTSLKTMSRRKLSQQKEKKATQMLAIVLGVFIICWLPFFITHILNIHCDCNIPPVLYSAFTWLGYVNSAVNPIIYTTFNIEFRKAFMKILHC
Procedure: INHIBITION OF ^3 H-SPIPERONE BINDING TO DOPAMINE D-2 RECEPTORS IN RAT CORPUS STRIATUM IN VITRO
By this method the inhibition by drugs of the binding of ^3 H-spiperone (0.5 nM) to dopamine D-2 receptors in membranes from rat corpus striatum is determined in vitro.
Male Wistar (Mol:Wistar) rats (125-250 g) are sacrificed and striatal tissue is dissected and weighed. The tissue is homogenized (Ultra Turrax, 10 sec.) in 10 ml of ice-cold 50 mM K-phosphate buffer pH 7.4 (at 25° C.). The homogenate is centrifuged twice at 20,000 g for 10 min. at 4° C. with rehomogenization of the pellet in 10 ml ice-cold buffer. The final pellet is homogenized in 1300 vol (w/v) ice-cold buffer.
Incubation tubes kept on ice in triplicate receive 100 μl of drug solution in water (or water for total binding) and 4000 μl of tissue suspension (final tissue content corresponds to 3.08 mg original tissue). The binding experimental is initiated by addition of 100 μl of ^3 H-spiperone (final concentration 0.5 nM) and by placing the tubes in a 37° C. water bath. After incubation for 10 min. the samples are filtered under vacuum (0-50 mBar) through Whatman GF/F filters (25 mm). The tubes are rinsed with 5 ml ice-cold buffer which are then poured on the filters. Thereafter, the filters are washed with 2×5 ml of buffer. The filters are placed in counting vials and 4 ml of appropriate scintillation fluid (e.g. Picofluor ™15) are added. After shaking for 1 h and storage 2 hrs in the dark the content of radioactivity is determined by liquid scintillation counting. Specific binding is obtained by subtracting the nonspecific binding in the presence of 10 μM of 6,7-ADTN.
For determination of the inhibition of binding five concentrations of drugs covering 3 decades are used.
^3 H-Spiperone=[phenyl-4-^3 H]-spiperone from Amersham International plc. England, specific activity 15-25 Ci/mmol.

[3] = target: α1 adrenoceptors; experiment: Inhibition of 3H-prazosin binding to α1 adrenoceptors in rat brain in vitro; details: for IC50: 3H-Prazosin 0.25 nM, rat brain, 25° C., 20 min, read-out: Receptor Binding, IC50 α1 3H-Praz
[4] = tested on: male albino BKW mice; experiment: Light/dark discrimination test in mice; type: in vivo, mouse; details: intraperitoneally 45 min before testing, doses from 0.01 to 1 mg/kg
Procedure: LIGHT/DARK DISCRIMATION TEST IN MICE
This test was carried out in accordance with the method described in Costall et al. Br. J. Pharmacol. 90 275P (1987).
The test was conducted using a two compartment activity box in which the actions of anxiolytic compounds to reduce aversion against a brightly-lit environment may be readily detected. The box is designed as an open-top experimental box (45*27*27 cm) one third of which was partitioned from the rest, painted black and illuminated with red light. The remainder of the box was painted white and brightly illuminated (1000 W). The floor of each area was lined into squares. Behavioral changes were determined for each area from video recordings for periods of 40 min.
Data obtained from dose groups of 5 animals (male albino BKW mice, 25-30 g) were analysed using single factor analysis of variance, and Dunnett's t-test. Test compounds were given intraperitoneally 45 min before testing.

SMILES | IC50 [1] | IC50 [2] | IC50 [3] | anxiolytic activity [4] | affinity to 5-HT2 receptors (in words) [1] | affinity to α1 adrenoceptors (in words) [3]
CCN1CCN(CCN2CCN([C@@H]3C[C@@H](c4ccc(F)cc4)c4cc(Cl)ccc43)CC2)C1=O (relative stereo) [Compound 19, Trans-1-[2-[4-[5-chloro-3-(4-fluorophenyl)-2,3-dihydro-1H-inden-1-yl]piperazin-1-yl]ethyl]-3-ethyl-2-imidazolidinone] | 2.6 nM | 260 nM | 240 nM | – | – | –
CC(C)N1CCN(CCN2CCN([C@@H]3C[C@@H](c4ccccc4)c4cc(Cl)ccc43)CC2)C1=O (relative stereo) [Compound 20, Trans-1-[2-[4-[5-chloro-3-phenyl-2,3-dihydro-1H-inden-1-yl]piperazin-1-yl]ethyl]-3-isopropyl-2-imidazolidinone] | 9.9 nM | 750 nM | 510 nM | – | – | –
CC(C)N1CCN(CCN2CCN([C@@H]3C[C@@H](c4ccccc4F)c4cc(Cl)ccc43)CC2)C1=O (relative stereo) [Compound 21, Trans-1-[2-[4-[5-chloro-3-(2-fluorophenyl)-2,3-dihydro-1H-inden-1-yl]piperazin-1-yl]ethyl]-3-isopropyl-2-imidazolidinone] | 3.5 nM | 920 nM | 670 nM | – | – | –
CSc1ccc2c(c1)[C@H](c1ccc(F)cc1)C[C@H]2N1CCN(CCN2CCNC2=O)CC1 (relative stereo) [Compound 22, Trans-1-[2-[4-[3-(4-fluorophenyl)-5-(methylthio)-2,3-dihydro-1H-inden-1-yl]piperazin-1-yl]ethyl]-2-imidazolidinone] | 3.5 nM | 1100 nM | 240 nM | – | – | –
CSc1ccc2c(c1)[C@H](c1ccc(F)cc1)C[C@H]2N1CCN(CCN2CCN(C(C)C)C2=O)CC1 (relative stereo) [Compound 23, Trans-1-[2-[4-[3-(4-fluorophenyl)-5-(methylthio)-2,3-dihydro-1H-inden-1-yl]piperazin-1-yl]ethyl]-3-isopropyl-2-imidazolidinone] | 4 nM | 720 nM | 250 nM | – | – | –
CC(C)N1CCN(CCN2CCN([C@@H]3C[C@@H](c4ccc(F)cc4)c4cc(Br)ccc43)CC2)C1=O (relative stereo) [Compound 24, Trans-1-[2-[4-[5-bromo-3-(4-fluorophenyl)-2,3-dihydro-1H-inden-1-yl]piperazin-1-yl]ethyl]-3-isopropyl-2-imidazolidinone] | 6.4 nM | 240 nM | 270 nM | – | – | –
Cc1ccc([C@@H]2C[C@@H](N3CCN(CCN4CCN(C(C)C)C4=O)CC3)c3ccc(Cl)cc32)cc1 (relative stereo) [Compound 26, Trans-1-[2-[4-[5-chloro-3-(4-methylphenyl)-2,3-dihydro-1H-inden-1-yl]piperazin-1-yl]ethyl]-3-isopropyl-2-imidazolidinone] | 11 nM | 450 nM | 60 nM | – | – | –
CC(C)N1CCN(CCN2CCN([C@@H]3C[C@@H](c4ccc(Cl)cc4)c4cc(Cl)ccc43)CC2)C1=O (relative stereo) [Compound 27, Trans-1-[2-[4-[5-chloro-3-(4-chlorophenyl)-2,3-dihydro-1H-inden-1-yl]piperazin-1-yl]ethyl]-3-isopropyl-2-imidazolidinone] | 15 nM | 280 nM | 180 nM | – | – | –
CC(C)N1CCN(CCN2CCN([C@@H]3C[C@@H](c4cccc(F)c4)c4cc(Cl)ccc43)CC2)C1=O (relative stereo) [Compound 28, Trans-1-[2-[4-[5-chloro-3-(3-fluorophenyl)-2,3-dihydro-1H-inden-1-yl]piperazin-1-yl]ethyl]-3-isopropyl-2-imidazolidinone] | 26 nM | 490 nM | 970 nM | – | – | –
Fc1ccc([C@@H]2C[C@@H](N3CCN(CCN4CCNC4=S)CC3)c3ccc(Cl)cc32)cc1 (relative stereo) [Compound 31, Trans-1-[2-[4-[5-chloro-3-(4-fluorophenyl)-2,3-dihydro-1H-inden-1-yl]piperazin-1-yl]ethyl]-2-imidazolidinthione] | 1.5 nM | 67 nM | 52 nM | – | – | –
CC(C)N1CCN(CCN2CCN([C@@H]3C[C@@H](c4ccc(F)cc4)c4cc(Cl)ccc43)CC2)C1=S (relative stereo) [Compound 36, Trans-1-[2-[4-[5-chloro-3-(4-fluorophenyl)-2,3-dihydro-1-H-inden-1-yl]piperazin-1-yl]ethyl]-3-isopropyl-2-imidazolidinthione] | 3.6 nM | 260 nM | 69 nM | – | – | –
O=C1N(CCO)CCN1CCN1CCN([C@@H]2C[C@@H](c3ccc(F)cc3)c3cc(Cl)ccc32)CC1 (relative stereo) [Compound 37, Trans-1-[2-[4-[5-chloro-3-(4-fluorophenyl)-2,3-dihydro-1H-inden-1-yl]piperazin-1-yl]-ethyl]-3-(2-hydroxyethyl)-2-imidazolidinone] | 6.1 nM | 320 nM | 710 nM | – | – | –
Fc1ccc([C@@H]2C[C@@H](N3CCN(CCN4CCCC4=S)CC3)c3ccc(Cl)cc32)cc1 (relative stereo) [Compound 38] | 5.3 nM | 290 nM | 260 nM | – | – | –
Cc1ccc2c(c1)[C@H](N1CCN(CCN3CCNC3=O)CC1)C[C@H]2c1ccc(F)cc1 (relative stereo) [Compound 40, reference compound] | 0.71 nM | 43 nM | 12 nM | – | – | –
O=C1NCCN1CCN1CCN([C@H]2C[C@H](c3ccc(F)cc3)c3cc(C(F)(F)F)ccc32)CC1 (single isomer, unassigned) [(+)-1] | 2 nM | 290 nM | 330 nM | – | – | –
Fc1ccc([C@@H]2C[C@@H](N3CCN(CCN4CCCNC4=S)CC3)c3ccc(F)cc32)cc1 (single isomer, unassigned) [(+)-30, (+)-Trans-1-[2-[4-[5-fluoro-3-(4-fluorophenyl)-2,3-dihydro-1H-inden-1-yl]piperazin-1-yl]ethyl]-tetrahydro-2(1H)-pyrimidinethione] | 0.95 nM | – | 43 nM | significant anxiolytic activity (p<0.05) in doses from 0.01 to 1 mg/kg | – | –
Fc1ccc([C@H]2C[C@H](N3CCNCC3)c3ccc(Cl)cc32)cc1 (single isomer, unassigned) [(-)-10] | 15 nM | 730 nM | 390 nM | – | – | –
CC1(C)CNC(=O)N(CCN2CCN([C@@H]3C[C@@H](c4ccc(F)cc4)c4cc(Cl)ccc43)CC2)C1 (single isomer, unassigned) [Compound 35, (+)-Trans-1-[2-[4-[5-chloro-3-(4-fluorophenyl)-2,3-dihydro-1H-inden-1-yl]piperazin-1-yl]ethyl]-5,5-dimethyl-tetrahydro-2(1H)-pyrimidinone] | 4.8 nM | 150 nM | 120 nM | – | – | –
O=C1NCCN1CCN1CCN([C@@H]2C[C@@H](c3ccc(F)cc3)c3ccccc32)CC1 [Irindalon, reference compound] | 3.4 nM | 400 nM | 16 nM | – | high affinity to 5-HT2 receptors | significant affinity to oh adrenoceptors
